Measurements reported in patent US20260224732A1, “BIOPOLYMER PROTECTED OLIGONUCLEOTIDES FOR DRUG DELIVERY” (THE ROYAL INSTITUTION FOR THE ADVANCEMENT OF LEARNING / …, priority 2023, published 2026).

Key:
[1] = cited from earlier work
Epithelial cells = assay: Cellular viability with CA and CA-R mixes; assay type: cell-based
Excerpt: Magnification of 10×, scale bar=100 μm, dapi in blue and factin in red.
Cellular viability. To be applicable in biological context, the toxicity of the CA and the combined CA-R mixes were verified. Epithelial cells were cultivated in media supplemented with various CA-R mixes and acidified at pH 6. Both the cellular viability and morphology was studied over a 5 day period.

endonuclease DNAse I = assay: Degradation with the endonuclease DNAse I; assay type: in vitro ADME
Excerpt: The enzymes were used at 1U of concentration and the DNA at 25M.

exonuclease EXO I = exonuclease EXO I (Escherichia coli, UniProt P04995); conditions: Exo I 1 unit
exonuclease EXO I, sequence (P04995 whole entry): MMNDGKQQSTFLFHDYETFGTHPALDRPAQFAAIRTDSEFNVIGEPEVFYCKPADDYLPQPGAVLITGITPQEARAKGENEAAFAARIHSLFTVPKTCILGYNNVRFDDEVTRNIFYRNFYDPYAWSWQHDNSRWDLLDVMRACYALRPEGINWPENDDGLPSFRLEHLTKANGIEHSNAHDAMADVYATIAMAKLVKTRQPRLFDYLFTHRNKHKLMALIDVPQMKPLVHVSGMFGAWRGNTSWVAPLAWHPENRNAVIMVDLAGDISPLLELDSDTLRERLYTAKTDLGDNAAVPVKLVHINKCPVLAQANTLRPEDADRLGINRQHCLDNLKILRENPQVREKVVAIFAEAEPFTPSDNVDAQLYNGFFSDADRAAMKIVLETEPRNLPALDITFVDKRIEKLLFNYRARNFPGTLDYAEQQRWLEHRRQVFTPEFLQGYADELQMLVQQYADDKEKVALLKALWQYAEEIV
Excerpt: The enzymes were used at 1U of concentration and the DNA at […].
The fetal bovine serum used to test the biological stability of strands in presence of CA contains a mixture of multiple nucleases, including both endo- and exonucleases.

[2] = Rheological measurements of dA/CA hydrogels; assay type: physicochemical; conditions: CA 20 mM
Experimental: Hydrogel Assembly and Rheology: Unless otherwise stated, the preparation of gels follows this procedure. The appropriate amounts of strands are evaporated from their stocks on a speedvaccuum in a 300 μL Eppendorf. For the dA30-dsDNAn hydrogels, the concentration is half strand1 and half strand2. Once dry, 50 μL or 100 μL of a buffer containing the desired concentration of CA and/or CAC2NH2 is added to the Eppendorf. […] Both buffers give similar gels rheologically (FIG. 40). For concentrations of CA exceeding 20 mM or CAC2NH2 30 mM, the excess CA-R is dried with the strands from a water/CA 20 mM solution adjusted to pH 6. The dried DNA is mixed and sonicated to help it dissolve, forming instantly a cloudy filamentous gel. To homogenize the gels, the Eppendorf is heated to 85° C. for 5 minutes a Bio-Rad T100TM thermocycler, then cooled down to 20° C. and kept at that temperature overnight, unless otherwise noted. They are measured the next day. It is important to properly homogenize the gels, mixing them at high temp if needed, and to quickly cool them, or they may form more localized aggregates with varying rheology. Due to the high melting temperature of dA30C8 2 mM, CA 60 mM, CAC2NH2 90 mM, the gel was prepared by heating at 100° C. for 20 min (sealed to prevent water escaping), before being brought to 20° C. Clear monophasic gels are formed from this process.
Rheological measurements: Rheological properties were measured using stress-controlled rheometer (MCR 302, Anton Paar) using a 15 mm diameter cone plate at 0.2 mm (50 μL gels) or 0.5 mm (100 μL gels) gap distance. Samples were taken directly from the Eppendorf in which they were formed by prying it open with a razor blade and placed under the cone plate. The temperature was maintained at 25° C. for all measurements using a Peltier temperature control unit unless otherwise noted. Due to the small thickness of the samples, no temperature gradients are expected. To avoid drying, a solvent trap was used in all the measurements. Amplitude sweeps were first conducted to assess the linear viscoelastic range of the samples by slowly increasing the strain from 0.01% to 100%. […] Oscillatory frequency sweep tests were measured between 0.1 Hz and 100 Hz at 0.1% strain. Strain-cycle experiment was done by cycling the gel between 0.1% and 100% strains at 1 Hz. To understand the shear-thinning behavior of the samples, the viscosity was measured at increasing strain rate ranging from (0.1-100 Hz).
• A) Strand complement. Two 50 μL dA30C4 700 μM hydrogel in Mag buffer with CA 20 mM samples were prepared, as well as a 10 μL sample of dG4T30 3 mM (1.5 eq.) in the same buffer and CA concentration. A sample of dA30C4 hydrogel was measured independently. The dG4T30 sample was added to the second dA30C4 sample and vortexed in its Eppendorf for 2 minutes before being measured. • B) Melamine. A 50 μL hydrogel composed of dA30-dsDNA13 700 μM and CA 20 mM in Mag buffer was measured in the rheometer. The plate of the rheometer was lifted and 50 μL of solution of 20 mM melamine in Mag buffer at pH6 was added to it. Instant white precipitate formed and was encouraged by gently mixing with a spatula for 30s before the resulting liquid with solid precipitate was measured rheologically. • C) pH. A volume of 180 μL of dA30C4v2 700 μM CA 20 mM hydrogel in Mag buffer was prepared. The initial pH was measured at 5.71 with a surface pH meter (Mettler Toledo). An approximate volume of 50 μL was separated and measured rheologically. To the remaining 130 μL, 2.70 μL of NaOH 5.04M was added and stirred through vortexing. The resulting pH of the liquid was measured at 7.91. 50 μL of it were measured rheologically. To the remaining 80 μL, 1.5 μL of HCl 5.04M was added by aliquot and mixed through vortexing, forming a gel with a pH of 5.66 after 2 minutes. To note that in general, it is important to mix vigorously with the addition of the acid, or localized gels will form rather than a homogeneous one. […]

O=c1[nH]c(=O)[nH]c(=O)[nH]1 [CA, cyanuric acid]
pKa [1]: 6.9
toxicity in vitro (Epithelial cells): low toxicity
viability (Epithelial cells; after 5 days, pH 6, CA 20 mM alone or CA 20 mM plus the named CA-R (CAC2NH2 30 mM, CAC6NH2 12 mM)): 91±2%

dA30: DNA strand of 30 adenines, SEQ ID NO 6 (DNA AAAAAAAAAAAAAAAAAAAAAAAAAAAAAA; DNA, backbone not given here)
half-life without CA (endonuclease DNAse I; DNAse I 1U, no CA): 0.45 ± 0.1 h
t1/2 CA 20 mM (endonuclease DNAse I; DNAse I 1 unit, CA 20 mM): >120 h
t1/2 CA 0 mM (endonuclease DNAse I; DNAse I 1 unit, no CA): 0.46 h
degradation after 5 days at 1U of enzyme (endonuclease DNAse I; DNAse I, with CA): does not cause degradation
t1/2 CA 20 mM (exonuclease EXO I): 63 ± 15 h
storage modulus G′ (1 Hz) ([2]; 700 μM strands (1.4 wt % for dA30C4v2)): 1.8±0.4×10^2 Pa
storage modulus (G′) ([2]; 1 Hz, same wt % (dA15 1400 μM, dA30 700 μM, dA50 420 μM), Mag buffer, 25° C.): 1.8±0.4×10^2 Pa
